Reference: ChEMBL document CHEMBL1201862, “PubChem BioAssay data set” (2004)
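The compound was tested at five concentrations on cells cultured in 96-well plates, with a 48-hour exposure period. At the GI50, growth is halved.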 Activity calls are given as the source filed them. Cut-off read from the data, not from the text of the source: active = GI50 up to about 1.1 µM and inactive = higher.

Legend:
Experiment in all cases: NCI tumour cell line growth inhibition, 48 h
OVCAR-4 = test system: OVCAR-4
SR = test system: SR
RXF 393 = test system: RXF 393
SNB-19 = test system: SNB-19
HCT-116 = test system: HCT-116
EKVX = test system: EKVX
Hs-578T = test system: Hs-578T
HL-60 = test system: HL-60
ACHN = test system: ACHN
DU-145 = test system: DU-145
786-0 = test system: 786-0
Malme-3M = test system: Malme-3M
MDA-MB-231 = test system: MDA-MB-231
HT-29 = test system: HT-29
UACC-62 = test system: UACC-62
SN12C = test system: SN12C
SK-MEL-28 = test system: SK-MEL-28
SW-620 = test system: SW-620
PC-3 = test system: PC-3
A549 = test system: A549
M14 = test system: M14
MOLT-4 = test system: MOLT-4
HOP-92 = test system: HOP-92
IGROV-1 = test system: IGROV-1
TK-10 = test system: TK-10
OVCAR-5 = test system: OVCAR-5
CCRF-CEM = test system: CCRF-CEM
LOX IMVI = test system: LOX IMVI
U-251 = test system: U-251
NCI-H23 = test system: NCI-H23
HOP-62 = test system: HOP-62
SK-OV-3 = test system: SK-OV-3
KM12 = test system: KM12
NCI/ADR-RES = test system: NCI/ADR-RES
MCF7 = test system: MCF7
NCI-H460 = test system: NCI-H460
UACC-257 = test system: UACC-257
OVCAR-8 = test system: OVCAR-8
NCI-H522 = test system: NCI-H522
K562 = test system: K562
HCT-15 = test system: HCT-15
CAKI-1 = test system: CAKI-1
SF-268 = test system: SF-268
T47D = test system: T47D
A498 = test system: A498
MDA-N = test system: MDA-N
SNB-75 = test system: SNB-75
MDA-MB-435 = test system: MDA-MB-435
COLO 205 = test system: COLO 205
NCI-H226 = test system: NCI-H226
SF-295 = test system: SF-295
OVCAR-3 = test system: OVCAR-3
SF-539 = test system: SF-539
HCC 2998 = test system: HCC 2998
SK-MEL-5 = test system: SK-MEL-5
SK-MEL-2 = test system: SK-MEL-2
UO-31 = test system: UO-31
RPMI-8226 = test system: RPMI-8226

COc1ccc(C(=O)Sc2c(-c3ccccc3)c(=O)n(-c3ccccc3)c(=S)n2-c2ccccc2)cc1
GI50 (OVCAR-4): 44.4 µM (inactive)
GI50 (SR): 25.4 µM (inactive)
GI50 (RXF 393): 24.1 µM (inactive)
GI50 (SNB-19): 43.5 µM (inactive)
GI50 (HCT-116): 29.7 µM (inactive)
GI50 (EKVX): > 100 µM (inactive)
GI50 (Hs-578T): > 100 µM (inactive)
GI50 (HL-60): 60.5 µM (inactive)
GI50 (ACHN): 40.5 µM (inactive)
GI50 (DU-145): > 100 µM (inactive)
GI50 (786-0): 33.7 µM (inactive)
GI50 (Malme-3M): 48.5 µM (inactive)
GI50 (MDA-MB-231): > 100 µM (inactive)
GI50 (HT-29): > 100 µM (inactive)
GI50 (UACC-62): > 100 µM (inactive)
GI50 (SN12C): 41.7 µM (inactive)
GI50 (SK-MEL-28): 81.5 µM (inactive)
GI50 (SW-620): > 100 µM (inactive)
GI50 (PC-3): 5.16 µM (inactive)
GI50 (A549): 64.1 µM (inactive)
GI50 (M14): 68.7 µM (inactive)
GI50 (MOLT-4): 21.6 µM (inactive)
GI50 (HOP-92): 24.1 µM (inactive)
GI50 (IGROV-1): 10.1 µM (inactive)
GI50 (TK-10): > 100 µM (inactive)
GI50 (OVCAR-5): > 100 µM (inactive)
GI50 (CCRF-CEM): 22.3 µM (inactive)
GI50 (LOX IMVI): 74.5 µM (inactive)
GI50 (U-251): 47 µM (inactive)
GI50 (NCI-H23): > 100 µM (inactive)
GI50 (HOP-62): 34.5 µM (inactive)
GI50 (SK-OV-3): > 100 µM (inactive)
GI50 (KM12): > 100 µM (inactive)
GI50 (NCI/ADR-RES): > 100 µM (inactive)
GI50 (MCF7): > 100 µM (inactive)
GI50 (NCI-H460): > 100 µM (inactive)
GI50 (UACC-257): > 100 µM (inactive)
GI50 (OVCAR-8): 21.3 µM (inactive)
GI50 (NCI-H522): > 100 µM (inactive)
GI50 (K562): 37.1 µM (inactive)
GI50 (HCT-15): > 100 µM
GI50 (CAKI-1): > 100 µM (inactive)
GI50 (SF-268): 67.5 µM (inactive)
GI50 (T47D): > 100 µM (inactive)
GI50 (A498): 15.4 µM (inactive)
GI50 (MDA-N): > 100 µM (inactive)
GI50 (SNB-75): > 100 µM (inactive)
GI50 (MDA-MB-435): > 100 µM (inactive)
GI50 (COLO 205): 39.7 µM (inactive)
GI50 (NCI-H226): 5.73 µM (inactive)
GI50 (SF-295): > 100 µM (inactive)
GI50 (OVCAR-3): 30.5 µM (inactive)
GI50 (SF-539): 14.2 µM (inactive)
GI50 (HCC 2998): > 100 µM (inactive)

C=C(C)CC1=C(C(=S)NCCO[Si](C)(C)C(C)(C)C)C(OCC)(OCC)C1=O
GI50 (OVCAR-4): 12.9 µM (inactive)
GI50 (RXF 393): 13.6 µM (inactive)
GI50 (SNB-19): 17.7 µM (inactive)
GI50 (SK-MEL-5): 15.2 µM (inactive)
GI50 (HCT-116): 18.2 µM (inactive)
GI50 (EKVX): 16.6 µM (inactive)
GI50 (Hs-578T): 24.8 µM (inactive)
GI50 (HL-60): > 100 µM (inactive)
GI50 (ACHN): 18 µM (inactive)
GI50 (DU-145): 23 µM (inactive)
GI50 (786-0): 16.6 µM (inactive)
GI50 (Malme-3M): 12.7 µM (inactive)
GI50 (MDA-MB-231): 26.4 µM (inactive)
GI50 (HT-29): 9.59 µM (inactive)
GI50 (UACC-62): 17.7 µM (inactive)
GI50 (SN12C): 19.7 µM (inactive)
GI50 (SK-MEL-28): 15.5 µM (inactive)
GI50 (SW-620): 18.4 µM (inactive)
GI50 (PC-3): 14.8 µM (inactive)
GI50 (A549): 15.2 µM (inactive)
GI50 (M14): 18.3 µM (inactive)
GI50 (MOLT-4): > 100 µM (inactive)
GI50 (SK-MEL-2): 17 µM (inactive)
GI50 (HOP-92): 29.8 µM (inactive)
GI50 (IGROV-1): 15.9 µM (inactive)
GI50 (TK-10): 16.1 µM (inactive)
GI50 (OVCAR-5): 14 µM (inactive)
GI50 (CCRF-CEM): > 100 µM (inactive)
GI50 (LOX IMVI): 15.8 µM (inactive)
GI50 (U-251): 19.9 µM (inactive)
GI50 (NCI-H23): 16.9 µM (inactive)
GI50 (HOP-62): 17.9 µM (inactive)
GI50 (SK-OV-3): 18.2 µM (inactive)
GI50 (KM12): 16.7 µM (inactive)
GI50 (NCI/ADR-RES): 36.1 µM (inactive)
GI50 (MCF7): 9.66 µM (inactive)
GI50 (UACC-257): 16.9 µM (inactive)
GI50 (OVCAR-8): 40.6 µM (inactive)
GI50 (NCI-H522): 13.7 µM (inactive)
GI50 (HCT-15): 8.93 µM
GI50 (CAKI-1): 16.3 µM (inactive)
GI50 (SF-268): 19.1 µM (inactive)
GI50 (T47D): 11.4 µM (inactive)
GI50 (A498): 21.7 µM (inactive)
GI50 (MDA-N): 19.3 µM (inactive)
GI50 (SNB-75): 14.7 µM (inactive)
GI50 (MDA-MB-435): 16.9 µM (inactive)
GI50 (COLO 205): 22.3 µM (inactive)
GI50 (NCI-H226): > 10 µM (inactive)
GI50 (SF-295): 17.6 µM (inactive)
GI50 (SF-539): 19.9 µM (inactive)
GI50 (UO-31): 18.5 µM (inactive)

CN(C)c1n/c(=N/Cc2cccnc2)ss1
GI50 (OVCAR-4): > 10 µM (inactive)
GI50 (SR): 2.09 µM (inactive)
GI50 (RXF 393): > 10 µM (inactive)
GI50 (SK-MEL-5): > 10 µM (inactive)
GI50 (EKVX): > 10 µM (inactive)
GI50 (HL-60): 3.24 µM (inactive)
GI50 (DU-145): > 10 µM (inactive)
GI50 (786-0): > 10 µM (inactive)
GI50 (Malme-3M): > 10 µM (inactive)
GI50 (MDA-MB-231): > 10 µM (inactive)
GI50 (HT-29): > 10 µM (inactive)
GI50 (UACC-62): > 10 µM (inactive)
GI50 (SN12C): > 10 µM (inactive)
GI50 (SK-MEL-28): > 10 µM (inactive)
GI50 (SW-620): > 10 µM (inactive)
GI50 (PC-3): > 10 µM (inactive)
GI50 (A549): > 10 µM (inactive)
GI50 (M14): > 10 µM (inactive)
GI50 (MOLT-4): 3.5 µM (inactive)
GI50 (HOP-92): > 10 µM (inactive)
GI50 (IGROV-1): > 10 µM (inactive)
GI50 (RPMI-8226): > 10 µM (inactive)
GI50 (TK-10): > 10 µM (inactive)
GI50 (CCRF-CEM): 0.597 µM (active)
GI50 (LOX IMVI): 8.95 µM (inactive)
GI50 (NCI-H23): > 10 µM (inactive)
GI50 (HOP-62): > 10 µM (inactive)
GI50 (SK-OV-3): > 10 µM (inactive)
GI50 (KM12): > 10 µM (inactive)
GI50 (UACC-257): > 10 µM (inactive)
GI50 (OVCAR-8): > 10 µM (inactive)
GI50 (K562): 1.12 µM (active)
GI50 (HCT-15): > 10 µM
GI50 (CAKI-1): > 10 µM (inactive)
GI50 (SF-268): > 10 µM (inactive)
GI50 (T47D): > 10 µM (inactive)
GI50 (MDA-N): > 10 µM (inactive)
GI50 (SNB-75): > 10 µM (inactive)
GI50 (MDA-MB-435): > 10 µM (inactive)
GI50 (COLO 205): > 10 µM (inactive)
GI50 (SF-295): > 10 µM (inactive)
